In PubChem BioAssay (NCI):
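Values below derive from 48-hour exposures of cells grown in 96-well plates, with endpoints linearly interpolated between the two concentrations bracketing the appropriate inhibition level. Abbreviation: GI50, concentration required for 50% inhibition of growth. The concentration for full growth arrest is given as TGI.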

Assays:
Test in all cases: growth of human tumour cells (NCI), 48 h
HCC-2998 colon = tested on: HCC-2998 colon
A549 NSCLC = tested on: A549 NSCLC
SK-MEL-2 melanoma = tested on: SK-MEL-2 melanoma
NCI-H226 lung = tested on: NCI-H226 lung
DU-145 prostate = tested on: DU-145 prostate
EKVX NSCLC = tested on: EKVX NSCLC
KM12 colon = tested on: KM12 colon
U251 CNS = tested on: U251 CNS
OVCAR-4 ovarian = tested on: OVCAR-4 ovarian
HOP-62 NSCLC = tested on: HOP-62 NSCLC
SN12C renal = tested on: SN12C renal
T-47D breast = tested on: T-47D breast
BT-549 breast = tested on: BT-549 breast
HL-60(TB) leukemia = tested on: HL-60(TB) leukemia
TK-10 renal = tested on: TK-10 renal
RXF 393 renal = tested on: RXF 393 renal
SK-MEL-28 melanoma = tested on: SK-MEL-28 melanoma
SW-620 colon = tested on: SW-620 colon
SF-295 CNS = tested on: SF-295 CNS
UACC-257 melanoma = tested on: UACC-257 melanoma
SR leukemia = tested on: SR leukemia
SF-268 CNS = tested on: SF-268 CNS
LOX IMVI melanoma = tested on: LOX IMVI melanoma
HT29 colon = tested on: HT29 colon
SNB-75 CNS = tested on: SNB-75 CNS
CCRF-CEM leukemia = tested on: CCRF-CEM leukemia
A498 renal = tested on: A498 renal
COLO 205 colon = tested on: COLO 205 colon
MALME-3M melanoma = tested on: MALME-3M melanoma
CAKI-1 renal = tested on: CAKI-1 renal
786-0 renal = tested on: 786-0 renal
UACC-62 melanoma = tested on: UACC-62 melanoma
SK-OV-3 ovarian = tested on: SK-OV-3 ovarian
OVCAR-8 ovarian = tested on: OVCAR-8 ovarian
HOP-92 NSCLC = tested on: HOP-92 NSCLC
HCT-15 colon = tested on: HCT-15 colon
HCT-116 colon = tested on: HCT-116 colon
OVCAR-5 ovarian = tested on: OVCAR-5 ovarian
NCI/ADR-RES ovarian = tested on: NCI/ADR-RES ovarian
IGROV1 ovarian = tested on: IGROV1 ovarian
UO-31 renal = tested on: UO-31 renal
M14 melanoma = tested on: M14 melanoma
NCI-H460 lung = tested on: NCI-H460 lung
RPMI-8226 leukemia = tested on: RPMI-8226 leukemia
SNB-19 CNS = tested on: SNB-19 CNS
ACHN renal = tested on: ACHN renal
MOLT-4 leukemia = tested on: MOLT-4 leukemia
HS 578T breast = tested on: HS 578T breast
NCI-H23 lung = tested on: NCI-H23 lung
K-562 leukemia = tested on: K-562 leukemia
MDA-MB-231 breast = tested on: MDA-MB-231 breast
SF-539 CNS = tested on: SF-539 CNS
SK-MEL-5 melanoma = tested on: SK-MEL-5 melanoma
PC-3 prostate = tested on: PC-3 prostate
MDA-MB-435 = tested on: MDA-MB-435
MCF7 breast = tested on: MCF7 breast
NCI-H522 lung = tested on: NCI-H522 lung

O=C(NNc1nc2cc(F)ccc2n2c(CN3CCCC3)ccc12)c1cnccn1
GI50 (HCC-2998 colon): 3.51 µM
TGI (HCC-2998 colon): 27.8 µM
GI50 (A549 NSCLC): 1.38 µM
TGI (A549 NSCLC): 12.2 µM
GI50 (SK-MEL-2 melanoma): 2.48 µM
TGI (SK-MEL-2 melanoma): 10.8 µM
GI50 (NCI-H226 lung): 3.33 µM
TGI (NCI-H226 lung): 23.1 µM
GI50 (DU-145 prostate): 1.49 µM
TGI (DU-145 prostate): 13 µM
GI50 (EKVX NSCLC): 1.01 µM
TGI (EKVX NSCLC): 16.2 µM
GI50 (KM12 colon): 1.19 µM
TGI (KM12 colon): 16.5 µM
GI50 (U251 CNS): 1.19 µM
TGI (U251 CNS): 14.6 µM
GI50 (OVCAR-4 ovarian): 2.05 µM
TGI (OVCAR-4 ovarian): 55.8 µM
GI50 (HOP-62 NSCLC): 0.613 µM
TGI (HOP-62 NSCLC): 6.3 µM
GI50 (SN12C renal): 2.16 µM
TGI (SN12C renal): > 100 µM
GI50 (T-47D breast): 2.39 µM
TGI (T-47D breast): 48.2 µM
GI50 (BT-549 breast): 3.26 µM
TGI (BT-549 breast): 26 µM
GI50 (HL-60(TB) leukemia): 1.43 µM
TGI (HL-60(TB) leukemia): 4.84 µM
GI50 (TK-10 renal): 1.6 µM
TGI (TK-10 renal): 9.84 µM
GI50 (RXF 393 renal): 1.62 µM
TGI (RXF 393 renal): 7.56 µM
GI50 (SK-MEL-28 melanoma): 3.4 µM
TGI (SK-MEL-28 melanoma): 21.4 µM
GI50 (SW-620 colon): 1.93 µM
TGI (SW-620 colon): 16.7 µM
GI50 (SF-295 CNS): 0.627 µM
TGI (SF-295 CNS): 15.8 µM
GI50 (UACC-257 melanoma): 2.14 µM
TGI (UACC-257 melanoma): 6.87 µM
GI50 (SR leukemia): 0.416 µM
TGI (SR leukemia): > 100 µM
GI50 (SF-268 CNS): 1.38 µM
TGI (SF-268 CNS): 33.9 µM
GI50 (LOX IMVI melanoma): 0.893 µM
TGI (LOX IMVI melanoma): 11 µM
GI50 (HT29 colon): 0.599 µM
TGI (HT29 colon): 14.1 µM
GI50 (SNB-75 CNS): 3.72 µM
TGI (SNB-75 CNS): 30.9 µM
GI50 (CCRF-CEM leukemia): 0.521 µM
TGI (CCRF-CEM leukemia): > 100 µM
GI50 (A498 renal): 1.31 µM
TGI (A498 renal): 4.99 µM
GI50 (COLO 205 colon): 1.62 µM
TGI (COLO 205 colon): 15.1 µM
GI50 (MALME-3M melanoma): 2.81 µM
TGI (MALME-3M melanoma): 54.2 µM
GI50 (CAKI-1 renal): 1.61 µM
TGI (CAKI-1 renal): 18.1 µM
GI50 (786-0 renal): 2.07 µM
TGI (786-0 renal): 11.3 µM
GI50 (UACC-62 melanoma): 2.62 µM
TGI (UACC-62 melanoma): 8.34 µM
GI50 (SK-OV-3 ovarian): 1.67 µM
TGI (SK-OV-3 ovarian): 12.8 µM
GI50 (OVCAR-8 ovarian): 1 µM
TGI (OVCAR-8 ovarian): 10.6 µM
GI50 (HOP-92 NSCLC): 2.6 µM
TGI (HOP-92 NSCLC): 28.9 µM
GI50 (HCT-15 colon): 0.324 µM
TGI (HCT-15 colon): 21.7 µM
GI50 (HCT-116 colon): 0.725 µM
TGI (HCT-116 colon): 12.4 µM
GI50 (OVCAR-5 ovarian): 1.31 µM
TGI (OVCAR-5 ovarian): 16.1 µM
GI50 (NCI/ADR-RES ovarian): 0.569 µM
TGI (NCI/ADR-RES ovarian): 6.32 µM
GI50 (IGROV1 ovarian): 0.747 µM
TGI (IGROV1 ovarian): 11.5 µM
GI50 (UO-31 renal): 0.375 µM
TGI (UO-31 renal): 9.57 µM
GI50 (M14 melanoma): 1.61 µM
TGI (M14 melanoma): 12.1 µM
GI50 (NCI-H460 lung): 0.568 µM
TGI (NCI-H460 lung): 5.43 µM
GI50 (RPMI-8226 leukemia): 0.955 µM
TGI (RPMI-8226 leukemia): 49.2 µM
GI50 (SNB-19 CNS): 2.39 µM
TGI (SNB-19 CNS): 24.6 µM
GI50 (ACHN renal): 0.899 µM
TGI (ACHN renal): > 100 µM
GI50 (MOLT-4 leukemia): 0.773 µM
TGI (MOLT-4 leukemia): > 100 µM
GI50 (HS 578T breast): 4.55 µM
TGI (HS 578T breast): > 100 µM
GI50 (NCI-H23 lung): 2.45 µM
TGI (NCI-H23 lung): 18.5 µM
GI50 (K-562 leukemia): 0.599 µM
TGI (K-562 leukemia): > 100 µM
GI50 (MDA-MB-231 breast): 2.3 µM
TGI (MDA-MB-231 breast): 20.2 µM
GI50 (SF-539 CNS): 1.49 µM
TGI (SF-539 CNS): 10.4 µM
GI50 (SK-MEL-5 melanoma): 2.81 µM
TGI (SK-MEL-5 melanoma): 8.1 µM
GI50 (PC-3 prostate): 2.17 µM
TGI (PC-3 prostate): 19.8 µM
GI50 (MDA-MB-435): 3.95 µM
TGI (MDA-MB-435): > 100 µM
GI50 (MCF7 breast): 0.932 µM
TGI (MCF7 breast): 8.1 µM
GI50 (NCI-H522 lung): 2.12 µM
TGI (NCI-H522 lung): 5.55 µM
